Data from patent US11028090B2 (Dong Wha Pharm. Co., Ltd., priority 2017, dated 2021).
Read-outs that look alike come from different tables or passages of the source.

How the values were obtained:
[1] = test system: acute myelogenous leukemia cells (MV-4-11 cells); experiment: Cytotoxicity to acute myelogenous leukemia cells (MV-4-11 cells), CCK-8; conditions: Homo sapiens, MV4-11, 72 h
[2] = target: BRD4 (BD1+BD2) bromodomain (Homo sapiens (Human), UniProt O60885); experiment: BRD4 binding inhibition (AlphaScreen, GST-BRD4 vs tetraacetylated histone H4 peptide)
How it was run: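 GST-BRD4 (BD1+BD2) and biotinylated tetraacetyl-histone H4 peptide, each at 100 nM in HEPES pH 7.4 buffer with BSA and DTT, were combined with compound. Glutathione acceptor and streptavidin donor beads were added, then incubated 30 min at room temperature in the dark. Read-out was AlphaScreen signal.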

[3] = read-out: IC50, cytotoxicity against acute myelogenous leukemia cells
[4] = read-out: MV-4-11 Cytotoxicity IC50
[5] = GST-BRD4 (BD1+BD2) / biotinylated acetyl-histone H4 (Lys5,8,12,16) peptide, read-out: IC50, BRD4 binding inhibition
[6] = GST-BRD4 (BD1+BD2) vs biotinylated acetyl-histone H4 peptide, AlphaScreen, read-out: BRD4 IC50

SMILES | IC50 [1, 3] | IC50 [1, 4] | IC50 [2, 5] | IC50 [2, 6] | IC50 ([2]; IC50, BRD4 binding inhibition, GST-BRD4 (BD1+BD2) / biotinylated acetyl-histone H4 (Lys5,8,12,16) peptide)
CCC(C)CC(=O)NCCCCNc1nc2cc(-n3ccnc3)ccc2n2c(C)nnc12 (stereo not drawn) [Example 495, 3-methyl-pentanoic acid-[4-(7-imidazole-1-yl-1-methyl-[1,2,4]triazolo[4,3-a]quinoxaline-4-ylamino)-butyl]-amide] | ≤ 200 nM | 29 nM | ≤ 50 nM | 12 nM | –
CCC(C)C(=O)NCCCCNc1nc2cc(OC)ccc2n2c(C)nnc12 (stereo not drawn) [Example 291, N-[4-(7-methoxy-1-methyl-[1,2,4]triazolo[4,3-a]quinoxaline-4-ylamino)-butyl]-2-methyl-butyramide] | – | 290 nM | – | 97 nM | –
COc1cc2nc(NCCCCC(=O)NCc3ccco3)c3nnc(C)n3c2cc1OC [Example 650, 5-(7,8-dimethoxy-1-methyl-[1,2,4]triazolo[4,3-a]quinoxaline-4-ylamino)-pentanoic acid-(furan-2-ylmethyl)-amide] | – | 220 nM | ≤ 50 nM | 18 nM | –
Cc1nnc2c(NCCCCNC(=O)CC(C)(C)C)nc3ccc(OC(F)(F)F)cc3n12 [Example 266, 3,3-dimethyl-N-[4-(1-methyl-8-trifluoromethoxy-[1,2,4]triazolo[4,3-a]quinoxaline-4-ylamino)-butyl]-butyramide] | – | 540 nM | ≤ 50 nM | 43 nM | –
CCC(C)CNC(=O)CCCCNc1nc2cc(OC)ccc2n2c(C)nnc12 (stereo not drawn) [Example 656, 5-(7-methoxy-1-methyl-[1,2,4]triazolo[4,3-a]quinoxaline-4-ylamino)-pentanoic acid-(2-methyl-butyl)-amide] | ≤ 200 nM | 150 nM | ≤ 50 nM | 12 nM | –
CCOc1cc2nc(NCCCCNC(=O)OC(C)(C)C)c3nnc(C)n3c2cc1OCC [Example 173] | – | 360 nM | ≤ 10 nM | 4 nM | –
COCCOc1ccc2c(c1)nc(NCCCCNC(=O)OCC(C)C)c1nnc(C)n12 [Example 369, {4-[7-(2-methoxy-ethoxy)-1-methyl-[1,2,4]triazolo[4,3-a]quinoxaline-4-ylamino]-butyl}-carbamic acid isobutylester] | ≤ 200 nM | 130 nM | ≤ 50 nM | 14 nM | –
Cc1ccc(NC(=O)c2ccc3c(c2)nc(NCCCCNC(=O)CC(C)C)c2nnc(C)n23)c(N)c1 [Example 216, 1-methyl-4-[4-(3-methyl-butyrylamino)-butylamino]-[1,2,4]triazolo[4,3-a]quinoxaline-7-carboxylic acid-(2-amino-4-methyl-phenyl)-amide] | – | 240 nM | ≤ 50 nM | 31 nM | –
COCCOc1cc2nc(NCCCCNC(=O)OC(C)(C)C)c3nnc(C)n3c2cc1OCCOC [Example 162, {4-[7,8-bis-(2-methoxy-ethoxy)-1-methyl-[1,2,4]triazolo[4,3-a]quinoxaline-4-ylamino]-butyl}-carbamic acid-tert-butylester] | – | 640 nM | ≤ 50 nM | 24 nM | –
Cc1nnc2c(NCCCCNC(=O)c3ccccc3)nc3cc(OC(F)(F)F)ccc3n12 [Example 273, N-[4-(1-methyl-7-trifluoromethoxy-[1,2,4]triazolo[4,3-a]quinoxaline-4-ylamino)-butyl]-benzamide] | – | 510 nM | ≤ 50 nM | 49 nM | –
COc1ccc2c(c1)nc(NCCCCNC(=O)[C@H](C(C)C)N1CCC(O)CC1)c1nnc(C)n12 [Example 316, 2-(S)-(4-hydroxy-piperidine-1-yl)-N-[4-(7-methoxy-1-methyl-[1,2,4]triazolo[4,3-a]quinoxaline-4-ylamino)-butyl]-3-methyl-butyramide] | – | 730 nM | ≤ 50 nM | 41 nM | –
COc1ccc2c(c1)nc(NCCCCNC(=O)C(F)(F)C(F)(F)C(F)(F)F)c1nnc(C)n12 [Example 292, 2,2,3,3,4,4,4-heptafluoro-N-[4-(7-methoxy-1-methyl-[1,2,4]triazolo[4,3-a]quinoxaline-4-ylamino)-butyl]-butyramide] | ≤ 200 nM | 158 nM | – | 24 nM | ≤ 50 nM
Cc1nnc2c(NCCCCNC(=O)OC(C)(C)C)nc3cc(-c4nc5ccccc5[nH]4)ccc3n12 [Example 218, {4-[7-(1H-benzoimidazole-2-yl)-1-methyl-[1,2,4]triazolo[4,3-a]quinoxaline-4-ylamino]-butyl}-carbamic acid-tert-butylester] | – | 320 nM | ≤ 50 nM | 25 nM | –
COc1ccc2c(c1)nc(NCCCCNC(=O)OC(C)(C)C)c1nnc(C)n12 [Example 275, [4-(7-methoxy-1-methyl-[1,2,4]triazolo[4,3-a]quinoxaline-4-ylamino)-butyl]-carbamic acid-tert-butylester] | – | 330 nM | ≤ 50 nM | 38 nM | –
CCC(C)CC(=O)NCCCCNc1nc2cc(OC)c(OC)cc2n2c(C)nnc12 (stereo not drawn) [Example 73, 3-methyl-pentanoic acid-[4-(7,8-dimethoxy-1-methyl-[1,2,4]triazolo[4,3-a]quinoxaline-4-ylamino)-butyl]-amide] | ≤ 200 nM | 10 nM | ≤ 50 nM | 15 nM | –
Cc1nnc2c(NCCCCNC(=O)OC(C)(C)C)nc3cc(OCCN4CCOCC4)ccc3n12 [Example 430, {4-[1-methyl-7-(2-morpholine-4-yl-ethoxy)-[1,2,4]triazolo[4,3-a]quinoxaline-4-ylamino]-butyl}-carbamic acid-tert-butylester] | – | 600 nM | ≤ 50 nM | 22 nM | –
COc1ccc2c(nc(NCCCCNC(=O)OCC(C)C)c3nnc(C)n32)c1Cl [Example 462, [4-(6-chloro-7-methoxy-1-methyl-[1,2,4]triazolo[4,3-a]quinoxaline-4-ylamino)-butyl]-carbamic acid isobutylester] | – | 600 nM | ≤ 50 nM | – | –
CCCOC(=O)NCCCCNc1nc2cc(OCCOC)ccc2n2c(C)nnc12 [Example 367, {4-[7-(2-methoxy-ethoxy)-1-methyl-[1,2,4]triazolo[4,3-a]quinoxaline-4-ylamino]-butyl}-carbamic acid propylester] | – | 350 nM | ≤ 10 nM | 5 nM | –
CCC(C)CC(=O)NCCCCNc1nc2cc(OC)ccc2n2c(C)nnc12 (stereo not drawn) [Example 289, 3-methyl-pentanoic acid-[4-(7-methoxy-1-methyl-[1,2,4]triazolo[4,3-a]quinoxaline-4-ylamino)-butyl]-amide] | ≤ 200 nM | 26 nM | ≤ 50 nM | 12 nM | –
Cc1nnc2c(NCCCCNC(=O)NC(C)C)nc3cc(-c4nc5ccccc5n4C)ccc3n12 [Example 238, 1-isopropyl-3-{4-[1-methyl-7-(1-methyl-1H-benzoimidazole-2-yl)-[1,2,4]triazolo[4,3-a]quinoxaline-4-ylamino]-butyl}-urea] | – | 650 nM | ≤ 50 nM | 15 nM | –
Cc1nnc2c(NCCCCNC(=O)[C@@H](O)C(C)C)nc3cc(-c4nc5ccccc5n4C)ccc3n12 [Example 234, 2-(S)-hydroxy-3-methyl-N-{4-[1-methyl-7-(1-methyl-1H-benzoimidazole-2-yl)-[1,2,4]triazolo[4,3-a]quinoxaline-4-ylamino]-butyl}-butyramide] | ≤ 200 nM | 47 nM | ≤ 10 nM | 6 nM | –
CCc1nnc2c(NCCCCNC(=O)CC(C)C)nc3cc(OC)c(OC)cc3n12 [Example 597, N-[4-(1-ethyl-7,8-dimethoxy-[1,2,4]triazolo[4,3-a]quinoxaline-4-ylamino)-butyl]-3-methyl-butyramide] | – | 230 nM | ≤ 50 nM | 18 nM | –
Cc1nnc2c(NCCCCNC(=O)CC(C)C)nc3cc(OC(C)C)ccc3n12 [Example 449, N-[-(7-isopropoxy-1-methyl-[1,2,4]triazolo[4,3-a]quinoxaline-4-ylamino)-butyl]-3-methyl-butyramide] | – | 300 nM | ≤ 50 nM | 27 nM | –
COc1ccc2c(c1)nc(NCCCCNC(=O)CC(C)C)c1nnc(C(F)(F)F)n12 [Example 590, N-[4-(7-methoxy-1-trifluoromethyl-[1,2,4]triazolo[4,3-a]quinoxaline-4-ylamino)-butyl]-3-methyl-butyramide] | – | 490 nM | ≤ 50 nM | 29 nM | –
Cc1nnc2c(NCCCCNC(=O)OC3CCCC3)nc3cc(OC(C)C)ccc3n12 [Example 453, [4-(7-isopropoxy-1-methyl-[1,2,4]triazolo[4,3-a]quinoxaline-4-ylamino)-butyl]-carbamic acid cyclopentyl ester] | – | 500 nM | ≤ 50 nM | 24 nM | –
CCOC(=O)NCCCCNc1nc2cc(OC)c(OC)cc2n2c(C)nnc12 [Example 61, [4-(7,8-dimethoxy-1-methyl-[1,2,4]triazolo[4,3-a]quinoxaline-4-ylamino)-butyl]-carbamic acid ethylester] | – | 380 nM | – | 56 nM | –
COCCOc1ccc2c(c1)nc(NCCCCNC(=O)CCC(C)C)c1nnc(C)n12 [Example 383, 4-methyl-pentanoic acid{4-[7-(2-methoxy-ethoxy)-1-methyl-[1,2,4]triazolo[4,3-a]quinoxaline-4-ylamino]-butyl}-amide] | ≤ 200 nM | 73 nM | ≤ 10 nM | 3 nM | –
COc1cc2nc(NCCCCNC(=O)CC(C)C)c3nnc(C)n3c2cc1NS(=O)(=O)CC(C)C [Example 567] | ≤ 200 nM | 200 nM | ≤ 50 nM | 13 nM | –
